Measurements as given in EP0232423A1, “CIRCULATION IMPROVING AGENT” (GRELAN PHARMACEUTICAL CO., LTD., priority 1985, dated 1987).
Structures can show the parent of a compound that is named as a salt.

Legend:
[1] = tested on: isolated femoral artery; test: Relaxation of isolated femoral artery contracted by 50 mM KCl; assay type: cell-based, Mongrel dogs; settings: Canis lupus familiaris, 50 mM KCl contraction; for inhibition at 100 µM: 10^-4 M; for inhibition at 10 µM: 10^-5 M; for inhibition at 1 µM: 10^-6 M; for inhibition at 0.1 µM: 10^-7 M; for EC50: relaxation of isolated femoral artery, read-out: ED50 (the source's name)
Description: (§1) Mongrel dogs of either sex (body weight 10-17 kg) were killed by bleeding under anesthetization with pentobarbital sodium (tradename: Nembutai ® Abbott Co., USA). Thereafter, the basilar and femoral arteries were extracted and attached blood and connective tissues were carefully removed in a dish filled with Krebs bicarbonate solution (composition: NaCl 117.7 mM, KC1 4.7 mM, CaCl2 2.5 mM, MgSo4 1.2 mM, glucose 10 mM, NaHCO3 24.4 mM). Thereafter, ring preparations were made therefrom. This preparation was suspended in a bathing tube of 10 ml filled with Krebs bicarbonate solution aerated with 95 % 02 and 5 % C02.
(§2) Then, samples of basilar and femoral arteries were contracted by application of 50 mM KC1. After confirming that the contraction was sustained, (a) compound (I) (erythro form) lactate, (b) compound (I) (threo form) lactate and (c) ifenprodil; [2-(4-benzyl- piperidino-l-(4-hydroxyphenyl)propane-l-ol] tartrate were, respectively, administered as test compounds and the dose-relaxation response was examined.
(§3) A strain gauge transducer (model SB-lT manufactured by Nihon Koden Co.) was employed for recording of change of tension and isometric contraction was recorded on a recorder (model QPD 53 made by Hitachi Ltd . ) .

[2] = tested on: isolated basilar artery; test: Relaxation of isolated basilar artery contracted by 50 mM KCl; assay type: cell-based, Mongrel dogs; settings: Canis lupus familiaris, 50 mM KCl contraction; for inhibition at 1 µM: 10^-6 M; for inhibition at 0.1 µM: 10^-7 M; for inhibition at 0.01 µM: 10^-8 M; for EC50: relaxation of isolated basilar artery, read-out: ED50 (the source's name)
Description: as §1, §2, §3

[3] = tested on: ddY male mice; test: Prolongation of gasping time in complete cerebral ischemic (decapitated) animals; assay type: in vivo; settings: for Ratio of time (%): prolongation as compared with the control group; for Duration time of gasping: decapitated after 30 minutes
Description: After 30 minutes from administration, the.mice were decapitated and the duration time of gasping was measured. The control group was drug-untreated.

[4] = tested on: isolated basilar artery; test: PGF2α-induced 45Ca uptake in isolated basilar artery; assay type: cell-based, Mongrel dogs; settings: 10^-5 M + 10^-5 M PGF2α; PGF2α alone 166.2 ± 6.0
Text: (§4) Using the isolated basilar artery and femoral artery treated in accordance with Test Example 2, the activity of (a) compound (I) (lactate), (b) ifenprodil tartrate and (c) verapamil hydrochloride against ^45Ca influx and ^45Ca uptake were examined by the conventional method (J. Membran. Biol., vol. 59, page 19, 1981).

[5] = tested on: isolated basilar artery; test: Ca antagonistic action: Ca-induced contraction in K-depolarized basilar artery; assay type: cell-based, Mongrel dogs; settings: Canis lupus familiaris, 0.25 h, 50 mM KCl, Ca-free bath, cumulative CaCl2, compound applied 15 minutes before, read-out: pA2 values on Ca-induced contraction in depolarized muscle by K (converted)
Description: (§5) The same measurements as in Test Example 2 were carried out using the isolated basilar artery and isolated femoral artery treated in accordance with the method of Test Example 2.
(§6) For examination of the Ca antagonistic action, the depolarization of both isolated arteries was induced with 50 mM KC1 in a bathing solution from which Ca had been removed and then CaCl2 was cumulatively applied thereto. As test compounds, (a) compound (I) (erythro form) lactate and (b) ifenprodil tartrate were applied at 15 minutes before addition of CaCl2.

[6] = tested on: ddY male mice; test: Ameliorative activity against damage of cerebral hypoxia (reduced pressure); assay type: in vivo; settings: for Time required for stoppage of respiration: 30 minutes before, pressure reduced to 160 mmHg
Description: Thirty mg/kg each of compound (I) (lactate) and ifenprodil tartrate and 16 mg/kg of phentolamine, which is an a-adrenoceptor blocker, were intraperitoneally administered to ddY male mice, respectively. […] Time from start of reduction of pressure until stop of respiration in the mice was measured. The control group was drug-untreated.

[7] = tested on: platelets of rabbit; test: Fluidity of platelet membrane (fluorescence polarization); assay type: cell-based; design: Fluorescence polarization: unit not given here; settings: for Fluorescence polarization: fluidity increases as value decreases
Text: The activity of compound (I) (lactate) and ifenprodil tartrate against the fluidity of platelet membrane was examined according to a known method (Biochimica et Biophysica Acta, vol. 798, page 210, 1984) using platelets of rabbit and using n-butyl alcohol as a positive control.

[8] = tested on: isolated coronary artery; test: Relaxation of isolated coronary artery; assay type: cell-based, Mongrel dogs; settings: Canis lupus familiaris, read-out: ED50 (the source's name)
Description: as §1, §2, §3
Experiments were conducted in accordance with the method of Test Example 2 with use of the coronary artery in place of the basilar and femoral arteries. […]

[9] = tested on: α2-adrenoceptor; test: Antagonism of clonidine (α2-agonist) contraction in saphenous vein; assay type: cell-based, Mongrel dogs; settings: α2 - agonist: clonidine, non-competitive antagonism, 15 min
Text: (§7) In this experiment, phenylephrine and clonidine were used as al-agonist and a2-agonist, respectively, and these agonists were cumulatively applied to obtain a dose-response curve.

[10] = tested on: α1-adrenoceptor; test: Antagonism of phenylephrine (α1-agonist) contraction in saphenous vein; assay type: cell-based, Mongrel dogs; settings: α1 - agonist: phenylephrine; saphenous vein; 15 minutes treatment
Text: as §7

[11] = tested on: isolated femoral artery; test: Ca antagonistic action: Ca-induced contraction in K-depolarized femoral artery; assay type: cell-based, Mongrel dogs; settings: Canis lupus familiaris, 0.25 h, 50 mM KCl, Ca-free bath, cumulative CaCl2, compound applied 15 minutes before, read-out: pA2 values on Ca-induced contraction in depolarized muscle by K (converted)
Description: as §5, §6

[12] = tested on: isolated femoral artery; test: K-induced 45Ca influx in isolated femoral artery; assay type: cell-based, Mongrel dogs; settings: 10^-5 M + 50 mM KCl
Text: as §4

[13] = tested on: isolated femoral artery; test: K-induced 45Ca uptake in isolated femoral artery; assay type: cell-based, Mongrel dogs; settings: 50 mM KCl alone 586.0 ± 17.9
Text: as §4

[14] = tested on: ddY male mice; test: Thromboembolic respiratory depression induced by ADP; assay type: in vivo; settings: ADP 40 mg/kg i.v.
Description: The degree of formation of platelet thrombi in the pulmonary vessels of mice induced by intravenous administration of ADP can be measured based on the decrease in the respiratory rate. The anti-platelet thrombotic action of test drugs can be evaluated by using this decrease in the respiratory rate as a standard. […] Relative respiratory rate (%) was calculated according to the following formula. [formula] (cf. "Thrombosis Research", Vol. 35, Page 311, 1984)

[15] = pre-incubation 15 min, 50 mM KCl alone 94.6 ± 5.2
[16] = pre-incubation 45 min, 50 mM KCl alone 98.4 ± 6.8

C[C@@H]([C@H](O)c1ccc(OCc2ccccc2)cc1)N1CCC(Cc2ccccc2)CC1 (relative stereo) [Compound (I) (erythro form) lactate]
inhibition at 100 µM ([1]; mean, n = 4 - 5): 85.8%
inhibition at 10 µM ([1]; mean, n = 4 - 5): 59.9%
inhibition at 1 µM ([1]; mean, n = 4 - 5): 34.2%
inhibition at 0.1 µM ([1]; mean, n = 4 - 5): 1.2%
inhibition at 0.01 µM ([1]; 10^-8 M, mean, n = 4 - 5): 0.4%
EC50 [1]: 7200 nM
inhibition at 1 µM ([2]; mean, n = 4 - 5): 100%
inhibition at 0.1 µM ([2]; mean, n = 4 - 5): 39.2%
inhibition at 0.01 µM ([2]; mean, n = 4 - 5): 7%
EC50 [2]: 160 nM

C[C@@H]([C@@H](O)c1ccc(OCc2ccccc2)cc1)N1CCC(Cc2ccccc2)CC1 (relative stereo) [Compound (I) (threo form) lactate]
inhibition at 100 µM ([1]; mean, n = 4 - 5): 62.3%
inhibition at 10 µM ([1]; mean, n = 4 - 5): 22.5%
inhibition at 1 µM ([1]; mean, n = 4 - 5): 6.8%
inhibition at 0.1 µM ([1]; mean, n = 4 - 5): 0%
EC50 [1]: 51000 nM
inhibition at 10 µM ([2]; 10^-5 M, mean, n = 4 - 5): 100%
inhibition at 1 µM ([2]; mean, n = 4 - 5): 91.7%
inhibition at 0.1 µM ([2]; mean, n = 4 - 5): 72.1%
inhibition at 0.01 µM ([2]; mean, n = 4 - 5): 10.8%
EC50 [2]: 85 nM

CC(C)(CO)[C@@H](O)C(=O)NCCCC(=O)O [Calcium hopantenate]
Ratio of time (%) ([3]; 300 mg/kg i.p.): 10.5%
Duration time of gasping ([3]; 300 mg/kg intraperitoneally): 23.1 ± 0.6 s

CC(C(O)c1ccc(OCc2ccccc2)cc1)N1CCC(Cc2ccccc2)CC1 (stereo not drawn) [Compound (I) lactate]
PGF2α-induced ^45Ca uptake in isolated basilar artery [4]: 135.2 ± 12.7 (*) n mol/g wt. tissue
Kb [5]: 18.6 nM
Time required for stoppage of respiration ([6]; 30 mg/kg intraperitoneally): 126.1 ± 12.1 s
Ratio of time (%) ([3]; 3 mg/kg i.p.): 3.8%
Duration time of gasping ([3]; 3 mg/kg intraperitoneally): 21.7 ± 0.4 s
Ratio of time (%) ([3]; 10 mg/kg i.p.): 27.8%
Duration time of gasping ([3]; 10 mg/kg intraperitoneally): 26.7 ± 1.8 s
Ratio of time (%) ([3]; 30 mg/kg i.p.): 116.3%
Duration time of gasping ([3]; 30 mg/kg intraperitoneally): 45.2 ± 3.5 s
effect on fluidity of platelet membrane [7]: an increase in the fluitidy of platelet membrane
EC50 [8]: 2200 nM
pD2' value [9]: pD2' = 4.87^Note 4)
pA2 value [10]: pA2 = 7.03 ± 0.04
Kb [11]: 1550 nM
K-induced ^45Ca influx in isolated femoral artery [12, 15]: 106.2 ± 4.1 n mol/g wt. tissue
K-induced ^45Ca influx in isolated femoral artery [12, 16]: 38.2 ± 2.6 n mol/g wt. tissue
K-induced ^45Ca influx in isolated femoral artery ([12]; pre-incubation 135 min): 28.3 ± 1.1 n mol/g wt. tissue
K-induced ^45Ca uptake in isolated femoral artery ([13]; 10^-4 M + 50 mM KCl): 378.8 ± 27.9 n mol/g wt. tissue
K-induced ^45Ca uptake in isolated femoral artery ([13]; 10^-5 M + 50 mM KCl): 461.4 ± 26.7 n mol/g wt. tissue
K-induced ^45Ca uptake in isolated femoral artery ([13]; 10^-6 M + 50 mM KCl): 724.4 ± 32.4 n mol/g wt. tissue

COc1ccc([C@@H]2Sc3ccccc3N(CCN(C)C)C(=O)[C@@H]2OC(C)=O)cc1 [Diltiazem-HCl]
Relative respiratory rate (%) ([14]; 10 mg/kg oral, 1 hr after administration): 56.3 ±8.5 (n=6) %
Relative respiratory rate (%) ([14]; 10 mg/kg oral, 2 hr after administration): 38.3 ±7.3 (n=7) %

OC[C@H]1OC(O)[C@H](O)[C@@H](O)[C@@H]1O (stereo partly drawn) [Glucose]
Ratio of time (%) ([3]; 5.4 g/kg i.p.): 10.5%
Duration time of gasping ([3]; 5.4 g/kg intraperitoneally): 23.1 ± 0.6 s

Cc1ccc(N(CC2=NCCN2)c2cccc(O)c2)cc1 [Phentolamine]
Time required for stoppage of respiration ([6]; 16 mg/kg intraperitoneally): 54.5 ± 2.9 s
effect on survival time (cerebral hypoxia) ([6]; i.p., 30 mg/kg compound (I) and ifenprodil tartrate, 16 mg/kg phentolamine): shortens it

Clc1ccccc1CN1CCc2sccc2C1 [Ticlopidine-HCl]
Relative respiratory rate (%) ([14]; 30 mg/kg oral, 1 hr after administration, Compound (I) = erythro form): 49.3 ±4.3 (n=6) %
Relative respiratory rate (%) ([14]; 30 mg/kg oral, 2 hr after administration, Compound (I) = erythro form): 33.9 ±7.0 (n=7) %
Relative respiratory rate (%) ([14]; 30 mg/kg oral, 3 hr after administration, Compound (I) = erythro form): 37.2 ±10.5 (n=9) %

COc1ccc(CCN(C)CCCC(C#N)(c2ccc(OC)c(OC)c2)C(C)C)cc1OC (stereo not drawn) [Verapamil hydrochloride]
PGF2α-induced ^45Ca uptake in isolated basilar artery [4]: 134.0 ± 4.1 n mol/g wt. tissue
K-induced ^45Ca influx in isolated femoral artery [12, 15]: 76.7 ± 2.0 n mol/g wt. tissue
K-induced ^45Ca influx in isolated femoral artery [12, 16]: 29.8 ± 2.8 n mol/g wt. tissue
K-induced ^45Ca influx in isolated femoral artery ([12]; pre-incubation 135 min): 64.1 ± 5.0 n mol/g wt. tissue
K-induced ^45Ca uptake in isolated femoral artery ([13]; 10^-5 M + 50 mM KCl): 344.7 ± 14.4 n mol/g wt. tissue

CCCCO [n-Butyl alcohol, n-butyl alcohol]
effect on fluidity of platelet membrane [7]: an increase in the fluitidy of platelet membrane
Fluorescence polarization ([7]; 21 µM): 7±5
Fluorescence polarization ([7]; 42 µM): 6±5
Fluorescence polarization ([7]; 62 µM): -14±2
